According to US20260070945A1, “MACROCYCLIC IMMUNOMODULATORS” (Bristol-Myers Squibb Company, priority 2022, published 2026):
*1 amine or outer side, *2 acyl side, *3 side chain or, on linkers, in order; H or OH if unused. Where a SMILES comes first, the peptide text is derived from it. Bridges are numbered along the chain shown (N, C = ends). [ ]: non-standard residue; d: D form. The star is where a group is joined. ξ: configuration not given here. Phe(4-CH2CH2COOH) = N[C@@H](Cc1ccc(CCC(=O)O)cc1)C(=O)O; Phe(4-COOH) = N[C@@H](Cc1ccc(C(=O)O)cc1)C(=O)O; Bip = N[C@@H](Cc1ccc(-c2ccccc2)cc1)C(=O)O; Phe(4-CN) = N#Cc1ccc(C[C@H](N)C(=O)O)cc1; NH(CH2)14COOH = O=C(O)CCCCCCCCCCCCCCN*; Phe(3-Me) = Cc1cccc(C[C@H](N)C(=O)O)c1; NMeAEEA = CN(CCOCCOCC(=O)[*:2])[*:1]; Val(3-OH) = CC(C)(O)[C@H](N)C(=O)O; 4Pal = N[C@@H](Cc1ccncc1)C(=O)O; Cha = N[C@@H](CC1CCCCC1)C(=O)O; Cit = NC(=O)NCCC[C@H](N)C(=O)O; Ile(3ξ) = CCC(C)[C@H](N)C(=O)O; Thr(3ξ) = CC(O)[C@H](N)C(=O)O; 12Ado = NCCCCCCCCCCCC(=O)O; Carboxymethyl = O=C(O)C*; NMeA = CN[C@@H](C)C(=O)O; Orn = NCCC[C@H](N)C(=O)O; Aun = NCCCCCCCCCCC(=O)O; Dab = NCC[C@H](N)C(=O)O; Dap = NC[C@H](N)C(=O)O; AEEA = NCCOCCOCC(=O)O; Sar = CNCC(=O)O

These compounds were tested against T1, PD-1/PD-L1 interaction (PE-labeled human PD-L1-Ig binding to Jurkat cell line over-expressing human PD-1) (Homo sapiens, UniProt Q15116) (assay: Jurkat-PD-1 Cell Binding High-Content Screening Assay (CBA)). Conditions: Jurkat-hPD-1 cells, PE-labeled PD-L1-Ig 20 nM final; read-out: Jurkat HPD1 PDL1 IC50.
T1 construct: expressed in transfected cells; host or cells: Jurkat
T1 sequence (Q15116 25-288): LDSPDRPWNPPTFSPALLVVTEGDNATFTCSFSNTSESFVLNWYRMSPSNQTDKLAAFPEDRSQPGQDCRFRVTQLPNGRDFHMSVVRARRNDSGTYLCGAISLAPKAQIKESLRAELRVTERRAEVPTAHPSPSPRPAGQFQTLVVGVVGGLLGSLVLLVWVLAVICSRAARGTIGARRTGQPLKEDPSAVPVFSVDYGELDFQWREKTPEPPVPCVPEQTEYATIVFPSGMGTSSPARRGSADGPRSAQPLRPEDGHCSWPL
Outline: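 Compound is added first to the PD-1-expressing Jurkat cells and held 2 h at 37 °C in serum-containing DMEM. The fluorescent PD-L1 fusion follows at 20 nM final for 1 h. Fixed, Hoechst-stained cells are then imaged for bound label.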

IC50	Compound
0.052 µM	CC(C)C[C@@H]1NC(=O)[C@H](Cc2c[nH]c3ccccc23)NC(=O)[C@H](CC(=O)O)NC(=O)[C@H](Cc2ccc(C(=O)O)cc2)NC(=O)[C@H](Cc2ccc(OCC(=O)O)cc2)NC(=O)CSC[C@@H](C(=O)NCCOCCOCC(=O)NCCCCCCCCCCC(=O)O)NC(=O)[C@H](CO)NC(=O)[C@H](C(C)C)NC(=O)[C@H](CC2CCCCC2)NC(=O)[C@H](CCN)NC(=O)[C@@H](CC(C)C)NC(=O)[C@H](C)N(C)C(=O)[C@H](Cc2ccc(O)cc2)NC(=O)[C@H](Cc2ccc(-c3ccccc3)cc2)NC1=O [Example 2228] ({CH2CO}-Y(Carboxymethyl)[Phe(4-COOH)]DWL[Bip]Y[NMeA][dL][Dab][Cha]VSC[AEEA][Aun]-OH; thioether N-14)
0.024 µM	CC(C)C[C@@H]1NC(=O)[C@H](Cc2c[nH]c3ccccc23)NC(=O)[C@H](CC(=O)O)NC(=O)[C@H](Cc2ccccc2)NC(=O)[C@H](Cc2ccc(OCC(=O)O)cc2)NC(=O)CSC[C@@H](C(=O)N[C@@H](CCCCN)C(=O)NCCOCCOCC(=O)NCCCCCCCCCCC(=O)O)NC(=O)[C@H](CO)NC(=O)[C@H](C(C)C)NC(=O)[C@H](CC2CCCCC2)NC(=O)[C@H](CCN)NC(=O)[C@@H](CC(C)C)NC(=O)[C@H](C)N(C)C(=O)[C@H](C(C)C)NC(=O)[C@H](Cc2ccc(-c3ccccc3)cc2)NC1=O [Example 2098] ({CH2CO}-Y(Carboxymethyl)FDWL[Bip]V[NMeA][dL][Dab][Cha]VSCK[AEEA][Aun]-OH; thioether N-14)
0.0412 µM	CC(=O)NCCCC[C@@H]1NC(=O)[C@H](Cc2ccc(-c3ccccc3)cc2)NC(=O)[C@H](C(C)C)NC(=O)[C@H](Cc2cccc(C)c2)NC(=O)[C@H](CC(=O)O)NC(=O)[C@H](Cc2ccc(OCC(=O)O)cc2)NC(=O)[C@H](CN)NC(=O)CSC[C@@H](C(=O)N(C)CCOCCOCC(=O)NCCCCCCCCCCC(=O)O)NC(=O)[C@H](CCCN)NC(=O)[C@H](C(C)C)NC(=O)[C@H](CC2CCCCC2)NC(=O)[C@H](CCN)NC(=O)[C@@H](CC(C)C)NC(=O)[C@H](C)N(C)C1=O [Example 2415] ({CH2CO}-[Dap]Y(Carboxymethyl)D[Phe(3-Me)]V[Bip]K(Ac)[NMeA][dL][Dab][Cha]V[Orn]C[NMeAEEA][Aun]-OH; thioether N-14)
0.0166 µM	CC(=O)NCCCC[C@@H]1NC(=O)[C@H](Cc2ccc(-c3ccccc3)cc2)NC(=O)[C@H](C(C)C)NC(=O)[C@H](Cc2cccc(C)c2)NC(=O)[C@H](CC(=O)O)NC(=O)[C@H](Cc2ccc(OCC(=O)O)cc2)NC(=O)[C@H](C(C)O)NC(=O)CSC[C@@H](C(=O)N(C)CCOCCOCC(=O)NCCCCCCCCCCC(=O)O)NC(=O)[C@H](C(C)C)NC(=O)[C@H](C(C)C)NC(=O)[C@H](CC2CCCCC2)NC(=O)[C@H](CCN)NC(=O)[C@@H](CC(C)C)NC(=O)[C@H](C)N(C)C1=O (stereo partly drawn) [Example 2358] ({CH2CO}-[Thr(3ξ)]Y(Carboxymethyl)D[Phe(3-Me)]V[Bip]K(Ac)[NMeA][dL][Dab][Cha]VVC[NMeAEEA][Aun]-OH; thioether N-14)
0.181 µM	CC(C)C[C@H]1NC(=O)[C@H](C)N(C)C(=O)[C@H](C(C)C)NC(=O)[C@H](Cc2ccc(-c3ccccc3)cc2)NC(=O)[C@H](C(C)C)NC(=O)[C@H](Cc2c[nH]c3ccccc23)NC(=O)[C@H](CC(=O)O)NC(=O)[C@H](Cc2ccc(C(=O)O)cc2)NC(=O)[C@H](Cc2ccncc2)NC(=O)CSC[C@@H](C(=O)N[C@@H](CCN)C(=O)NCCCCCCCCCCCCCCC(=O)O)NC(=O)[C@H](CO)NC(=O)[C@H](C(C)C)NC(=O)[C@H](CC2CCCCC2)NC(=O)[C@H](CCN)NC1=O [Example 2004] ({CH2CO}-[4Pal][Phe(4-COOH)]DWV[Bip]V[NMeA][dL][Dab][Cha]VSC[Dab]-{NH(CH2)14COOH}; thioether N-14)
0.427 µM	Cc1cccc(C[C@@H]2NC(=O)[C@H](CC(=O)O)NC(=O)[C@H](Cc3ccc(OCC(=O)O)cc3)NC(=O)[C@H](C(C)O)NC(=O)CSC[C@@H](C(=O)N(C)CC(=O)NCCCCCCCCCCC(=O)O)NC(=O)[C@H](CCC(N)=O)NC(=O)[C@H](C(C)C)NC(=O)[C@H](CC3CCCCC3)NC(=O)[C@H](CCN)NC(=O)[C@@H](CC(C)C)NC(=O)[C@H](C)N(C)C(=O)[C@H](C(C)C)NC(=O)[C@H](Cc3ccc(-c4ccccc4)cc3)NC(=O)[C@H](Cc3ccc(O)cc3)NC2=O)c1 (stereo partly drawn) [Example 2265] ({CH2CO}-[Thr(3ξ)]Y(Carboxymethyl)D[Phe(3-Me)]Y[Bip]V[NMeA][dL][Dab][Cha]VQC[Sar][Aun]-OH; thioether N-14)
0.128 µM	Cc1cccc(C[C@@H]2NC(=O)[C@H](CC(=O)O)NC(=O)[C@H](Cc3ccc(OCC(=O)O)cc3)NC(=O)[C@H]([C@@H](C)O)NC(=O)CSC[C@@H](C(=O)N[C@@H](CCCN)C(=O)NCCOCCOCC(=O)NCCCCCCCCCCC(=O)O)NC(=O)[C@H](CCC(=O)O)NC(=O)[C@H](C(C)C)NC(=O)[C@H](CC3CCCCC3)NC(=O)[C@H](CC(N)=O)NC(=O)[C@@H](CC(C)C)NC(=O)[C@H](C)N(C)C(=O)[C@H](Cc3ccc(OCC(=O)O)cc3)NC(=O)[C@H](Cc3ccc(-c4ccccc4)cc3)NC(=O)[C@H](Cc3ccc(OCC(=O)O)cc3)NC2=O)c1 [Example 1366] ({CH2CO}-TY(Carboxymethyl)D[Phe(3-Me)]Y(Carboxymethyl)[Bip]Y(Carboxymethyl)[NMeA][dL]N[Cha]VEC[Orn][AEEA][Aun]-OH; thioether N-14)
0.0089 µM	Cc1cccc(C[C@@H]2NC(=O)[C@H](CC(=O)O)NC(=O)[C@H](Cc3ccc(OCC(=O)O)cc3)NC(=O)[C@H](CN)NC(=O)CSC[C@@H](C(=O)N[C@@H](CCN)C(=O)NCCCCCCCCCCC(=O)O)NC(=O)[C@H]([C@@H](C)O)NC(=O)[C@H](C(C)C)NC(=O)[C@H](CC3CCCCC3)NC(=O)[C@H](CCN)NC(=O)[C@@H](CC(C)C)NC(=O)[C@H](C)N(C)C(=O)[C@H](Cc3ccc(OCC(=O)O)cc3)NC(=O)[C@H](Cc3ccc(-c4ccccc4)cc3)NC(=O)[C@H](Cc3ccc(CCC(=O)O)cc3)NC2=O)c1 [Example 1262] ({CH2CO}-[Dap]Y(Carboxymethyl)D[Phe(3-Me)][Phe(4-CH2CH2COOH)][Bip]Y(Carboxymethyl)[NMeA][dL][Dab][Cha]VTC[Dab][Aun]-OH; thioether N-14)
0.0247 µM	CCC(C)[C@@H]1NC(=O)[C@H](Cc2ccc(-c3ccccc3)cc2)NC(=O)[C@H](C(C)C)NC(=O)[C@H](Cc2c[nH]c3ccccc23)NC(=O)[C@H](CC(=O)O)NC(=O)[C@H](Cc2ccc(OCC(=O)O)cc2)NC(=O)[C@H](C(C)O)NC(=O)CSC[C@@H](C(=O)N[C@H](CC(N)=O)C(=O)NCCOCCOCC(=O)NCCCCCCCCCCC(=O)O)NC(=O)[C@H](CCCCN)NC(=O)[C@H](C(C)C)NC(=O)[C@H](CC2CCCCC2)NC(=O)[C@H](CCN)NC(=O)[C@@H](CC(C)C)NC(=O)[C@H](C)N(C)C1=O (stereo partly drawn) [Example 2208] ({CH2CO}-[Thr(3ξ)]Y(Carboxymethyl)DWV[Bip][Ile(3ξ)][NMeA][dL][Dab][Cha]VKC[dN][AEEA][Aun]-OH; thioether N-14)

Same assay, conditions: PE-labeled PD-L1-Ig 20 nM final, Jurkat-hPD-1 cells; read-out: Jurkat HPD1 PDL1 IC50

IC50	Compound
0.0349 µM	CC(C)C[C@@H]1NC(=O)[C@H](Cc2c[nH]c3ccccc23)NC(=O)[C@H](CC(=O)O)NC(=O)[C@H](Cc2ccc(OCC(=O)O)cc2)NC(=O)[C@H](C(C)O)NC(=O)CSC[C@@H](C(=O)NCCOCCOCC(=O)NCCCCCCCCCCC(=O)O)NC(=O)[C@H](C(C)O)NC(=O)[C@H](C(C)C)NC(=O)[C@H](CC2CCCCC2)NC(=O)[C@H](CCN)NC(=O)[C@@H](CC(C)C)NC(=O)[C@H](C)N(C)C(=O)[C@H](CCCNC(N)=O)NC(=O)[C@H](Cc2ccc(-c3ccccc3)cc2)NC1=O (stereo partly drawn) [Example 2437] ({CH2CO}-[Thr(3ξ)]Y(Carboxymethyl)DWL[Bip][Cit][NMeA][dL][Dab][Cha]V[Thr(3ξ)]C[AEEA][Aun]-OH; thioether N-14)
0.0079 µM	Cc1cccc(C[C@@H]2NC(=O)[C@H](CC(=O)O)NC(=O)[C@H](Cc3ccc(C#N)cc3)NC(=O)[C@H](C(C)O)NC(=O)CSC[C@@H](C(=O)N[C@@H](CCN)C(=O)NCCOCCOCC(=O)NCCOCCOCC(=O)NCCCCCCCCCCC(=O)O)NC(=O)[C@H](Cc3cnc[nH]3)NC(=O)[C@H](C(C)O)NC(=O)[C@H](CC3CCCCC3)NC(=O)[C@H](CCN)NC(=O)[C@@H](CC(C)C)NC(=O)[C@H](C)N(C)C(=O)[C@H](Cc3ccc(OCC(=O)O)cc3)NC(=O)[C@H](Cc3ccc(-c4ccccc4)cc3)NC(=O)[C@H](Cc3ccc(OCC(=O)O)cc3)NC2=O)c1 (stereo partly drawn) [Example 2525] ({CH2CO}-[Thr(3ξ)][Phe(4-CN)]D[Phe(3-Me)]Y(Carboxymethyl)[Bip]Y(Carboxymethyl)[NMeA][dL][Dab][Cha][Thr(3ξ)]HC[Dab][AEEA][AEEA][Aun]-OH; thioether N-14)
0.0545 µM	Cc1cccc(C[C@@H]2NC(=O)[C@H](CC(=O)O)NC(=O)[C@H](Cc3ccc(OCC(=O)O)cc3)NC(=O)[C@H]([C@@H](C)O)NC(=O)CSC[C@@H](C(=O)NCC(=O)NCCOCCOCC(=O)NCCCCCCCCCCCC(=O)O)NC(=O)CNC(=O)[C@H](C(C)C)NC(=O)[C@H](CC3CCCCC3)NC(=O)[C@@H](CCC(=O)O)NC(=O)[C@@H](CC(C)C)NC(=O)[C@H](C)N(C)C(=O)[C@H](Cc3ccc(OCC(=O)O)cc3)NC(=O)[C@H](Cc3ccc(-c4ccccc4)cc3)NC(=O)[C@H](Cc3ccc(OCC(=O)O)cc3)NC2=O)c1 [Example 2688] ({CH2CO}-TY(Carboxymethyl)D[Phe(3-Me)]Y(Carboxymethyl)[Bip]Y(Carboxymethyl)[NMeA][dL][dE][Cha]VGCG[AEEA][12Ado]-OH; thioether N-14)
0.0084 µM	CC(C)C[C@H]1NC(=O)[C@H](C)N(C)C(=O)[C@H](C(C)C)NC(=O)[C@H](Cc2ccc(-c3ccccc3)cc2)NC(=O)[C@H](C(C)C)NC(=O)[C@H](Cc2c[nH]c3ccccc23)NC(=O)[C@H](CC(=O)O)NC(=O)[C@H](Cc2ccc(OCC(=O)O)cc2)NC(=O)[C@H](Cc2ccc(OCC(=O)O)cc2)NC(=O)CSC[C@@H](C(=O)NCCOCCOCC(=O)NCCCCCCCCCCC(=O)O)NC(=O)[C@H](CO)NC(=O)[C@H](C(C)(C)O)NC(=O)[C@H](CC2CCCCC2)NC(=O)[C@H](CCN)NC1=O [Example 2455] ({CH2CO}-Y(Carboxymethyl)Y(Carboxymethyl)DWV[Bip]V[NMeA][dL][Dab][Cha][Val(3-OH)]SC[AEEA][Aun]-OH; thioether N-14)
